From ChEMBL document CHEMBL1201862, “PubChem BioAssay data set” (2004)
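Compound exposure: 48 hours, 5 concentrations, 96-well plates. GI50: concentration for 50% inhibition of growth.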 Active and inactive are the calls of the source. Rule as the data show it: active = GI50 up to about 1.1 µM and inactive = higher.

Key:
Assay in all cases: inhibition of tumour cell growth, NCI panel, 48 h
SNB-75 = system: SNB-75
SK-MEL-2 = system: SK-MEL-2
OVCAR-4 = system: OVCAR-4
HOP-62 = system: HOP-62
SK-MEL-28 = system: SK-MEL-28
NCI-H460 = system: NCI-H460
ACHN = system: ACHN
OVCAR-3 = system: OVCAR-3
HCT-116 = system: HCT-116
HCC 2998 = system: HCC 2998
SF-539 = system: SF-539
IGROV-1 = system: IGROV-1
NCI-H226 = system: NCI-H226
DMS-114 = system: DMS-114
SN12C = system: SN12C
KM12 = system: KM12
LOX IMVI = system: LOX IMVI
NCI-H23 = system: NCI-H23
HOP-18 = system: HOP-18
K562 = system: K562
HL-60 = system: HL-60
SK-MEL-5 = system: SK-MEL-5
U-251 = system: U-251
HOP-92 = system: HOP-92
UACC-257 = system: UACC-257
SNB-78 = system: SNB-78
SF-268 = system: SF-268
DMS-273 = system: DMS-273
SW-620 = system: SW-620
TK-10 = system: TK-10
XF498 = system: XF498
OVCAR-8 = system: OVCAR-8
LXFL 529 = system: LXFL 529
COLO 205 = system: COLO 205
HT-29 = system: HT-29
786-0 = system: 786-0
KM-20L2 = system: KM-20L2
OVCAR-5 = system: OVCAR-5
UACC-62 = system: UACC-62
CAKI-1 = system: CAKI-1
RXF 393 = system: RXF 393
A498 = system: A498
SK-OV-3 = system: SK-OV-3
CCRF-CEM = system: CCRF-CEM
RPMI-8226 = system: RPMI-8226
NCI-H522 = system: NCI-H522
M14 = system: M14
UO-31 = system: UO-31
DLD-1 = system: DLD-1
A549 = system: A549
EKVX = system: EKVX
M19-MEL = system: M19-MEL
Malme-3M = system: Malme-3M
SNB-19 = system: SNB-19
HCT-15 = system: HCT-15

Measured: GI50

Cn1c(=O)c(C(=O)NC(=O)NCCCCCOC(=O)CCCCCCCCCCC(=O)OCCCCCNC(=O)NC(=O)c2cn(Cc3ccccc3)c(=O)n(C)c2=O)cn(Cc2ccccc2)c1=O
> 100 µM: HCT-15
inactive: SNB-75 > 100 µM | SK-MEL-2 > 100 µM | OVCAR-4 > 100 µM | HOP-62 > 100 µM | SK-MEL-28 > 100 µM | NCI-H460 > 100 µM | ACHN > 100 µM | OVCAR-3 > 100 µM | HCT-116 > 100 µM | HCC 2998 > 100 µM | SF-539 > 100 µM | IGROV-1 > 100 µM | NCI-H226 > 100 µM | DMS-114 > 100 µM | SN12C > 100 µM | KM12 > 100 µM | LOX IMVI > 100 µM | NCI-H23 > 100 µM | HOP-18 > 100 µM | K562 > 100 µM | HL-60 > 100 µM | SK-MEL-5 > 100 µM | U-251 > 100 µM | HOP-92 71.4 µM | UACC-257 > 100 µM | SNB-78 > 100 µM | SF-268 > 100 µM | DMS-273 > 100 µM | SW-620 > 100 µM | TK-10 > 100 µM | XF498 > 100 µM | OVCAR-8 > 100 µM | LXFL 529 > 100 µM | COLO 205 > 100 µM | HT-29 > 100 µM | 786-0 > 100 µM | KM-20L2 > 100 µM | OVCAR-5 > 100 µM | UACC-62 > 100 µM | CAKI-1 > 100 µM | RXF 393 > 100 µM | A498 > 100 µM | SK-OV-3 > 100 µM | CCRF-CEM > 100 µM | RPMI-8226 > 100 µM | NCI-H522 > 100 µM | M14 > 100 µM | UO-31 > 100 µM | DLD-1 > 100 µM | A549 > 100 µM | EKVX > 100 µM | M19-MEL > 100 µM | Malme-3M > 100 µM | SNB-19 > 100 µM
